Test results taken from PubChem BioAssay AID248 (DTP/NCI, 2004).
Values joined by “and” are separate entries in the source; they are usually repeats but may differ in a detail not shown here. Equal values may be shown once. Toxic doses and inconclusive results are not listed. No stated cut-off is given here; in the data, active means T/C of 150% or more; inactive means T/C below 125%.

System: L1210 leukemia ip in BDF1 mice, survival T/C
Test: NCI In Vivo Anticancer Drug Screen. Data for tumor model L1210 Leukemia (intraperitoneal) in B6D2F1 (BDF1) mice
Conditions: endpoint: mean survival time, higher = longer survival
Summary of the method: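 Transplanted-tumor mice were given test agent; controls received vehicle only. Survival readings from the two groups were divided (treated over control).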

[1] = dose: 100.0 mg/kg/injection, schedule: Q04DX003 (ip), vehicle: saline with Tween-80
[2] = dose: 200.0 mg/kg/injection, schedule: Q04DX003 (ip), vehicle: saline with Tween-80
[3] = dose: 400.0 mg/kg/injection, schedule: Q04DX003 (ip), vehicle: saline with Tween-80
[4] = dose: 400.0 mg/kg/injection, schedule: Q04DX002 (ip), vehicle: saline with Tween-80
[5] = dose: 50.0 mg/kg/injection, schedule: Q01DX009 (ip), vehicle: Klucel (hydroxypropylcellulose) (HPC)
[6] = dose: 100.0 mg/kg/injection, schedule: Q01DX009 (ip), vehicle: saline with Tween-80
[7] = dose: 400.0 mg/kg/injection, schedule: Q01DX009 (ip), vehicle: saline with Tween-80
[8] = dose: 100.0 mg/kg/injection, schedule: Q01DX009 (ip), vehicle: Klucel (hydroxypropylcellulose) (HPC)
[9] = dose: 100.0 mg/kg/injection, schedule: Q04DX003 (ip), vehicle: Klucel (hydroxypropylcellulose) (HPC)
[10] = dose: 200.0 mg/kg/injection, schedule: Q01DX009 (ip), vehicle: Klucel (hydroxypropylcellulose) (HPC)
[11] = dose: 200.0 mg/kg/injection, schedule: Q04DX003 (ip), vehicle: Klucel (hydroxypropylcellulose) (HPC)
[12] = dose: 400.0 mg/kg/injection, schedule: Q01DX009 (ip), vehicle: Klucel (hydroxypropylcellulose) (HPC)

Measured: T/C

O=C(O)C(Cc1ccccc1)N1C(=O)C2C3CCC(C3)C2C1=O (stereo not drawn)
inactive: dose: 25.0 mg/kg/injection, schedule: Q04DX003 (ip), vehicle: saline with Tween-80 93 % of control | dose: 50.0 mg/kg/injection, schedule: Q04DX003 (ip), vehicle: saline with Tween-80 93 % of control | [1] 100 % of control and 107 % of control | [2] 110 % of control | [3] 103 % of control

S=C(CC(C(=S)N1CCOCC1)N1CCOCC1)N1CCOCC1 (stereo not drawn)
inactive: dose: 25.6 mg/kg/injection, schedule: Q04DX002 (ip), vehicle: saline with Tween-80 98 % of control | dose: 64.0 mg/kg/injection, schedule: Q04DX002 (ip), vehicle: saline with Tween-80 102 % of control | [1] 98 % of control | dose: 160.0 mg/kg/injection, schedule: Q04DX002 (ip), vehicle: saline with Tween-80 87 % of control | [2] 104 % of control | [4] 98 % of control | [3] 101 % of control

O=NN(Cc1ccccc1)P(=O)(O)Oc1ccccc1
inactive: dose: 4.5 mg/kg/injection, schedule: Q01DX001 (ip), vehicle: saline 100 % of control | dose: 9.0 mg/kg/injection, schedule: Q01DX001 (ip), vehicle: saline 97 % of control | dose: 13.0 mg/kg/injection, schedule: Q01DX001 (ip), vehicle: saline 100 % of control | dose: 26.0 mg/kg/injection, schedule: Q01DX001 (ip), vehicle: saline 97 % of control | dose: 40.0 mg/kg/injection, schedule: Q01DX001 (ip), vehicle: saline 114 % of control | dose: 60.0 mg/kg/injection, schedule: Q01DX001 (ip), vehicle: saline 101 % of control | dose: 93.0 mg/kg/injection, schedule: Q01DX001 (ip), vehicle: saline 97 % of control | dose: 187.0 mg/kg/injection, schedule: Q01DX001 (ip), vehicle: saline 94 % of control | dose: 250.0 mg/kg/injection, schedule: Q01DX001 (ip), vehicle: saline 95 % of control | dose: 375.0 mg/kg/injection, schedule: Q01DX001 (ip), vehicle: saline 92 % of control | dose: 500.0 mg/kg/injection, schedule: Q01DX001 (ip), vehicle: saline 100 % of control | dose: 750.0 mg/kg/injection, schedule: Q01DX001 (ip), vehicle: saline 95 % of control

CN1CCC(=C2c3ccccc3C(O)c3ccccc32)CC1 (stereo not drawn)
inactive: dose: 3.12 mg/kg/injection, schedule: Q01DX009 (ip), vehicle: Klucel (hydroxypropylcellulose) (HPC) 98 % of control | dose: 6.25 mg/kg/injection, schedule: Q01DX009 (ip), vehicle: Klucel (hydroxypropylcellulose) (HPC) 96 % of control | dose: 12.5 mg/kg/injection, schedule: Q01DX009 (ip), vehicle: Klucel (hydroxypropylcellulose) (HPC) 93 % of control | dose: 25.0 mg/kg/injection, schedule: Q04DX003 (ip), vehicle: Klucel (hydroxypropylcellulose) (HPC) 98 % of control | [5] 93 % of control | dose: 50.0 mg/kg/injection, schedule: Q04DX003 (ip), vehicle: Klucel (hydroxypropylcellulose) (HPC) 98 % of control

COc1cc(C=O)ccc1OC(=O)Nc1cc(Cl)ccc1C
inactive: dose: 100.0 mg/kg/injection, schedule: Q01DX001 (ip), vehicle: saline with Tween-80 92 % of control | [6] 94 % of control and 97 % of control | dose: 100.0 mg/kg/injection, schedule: Q04DX002 (ip), vehicle: saline with Tween-80 95 % of control and 88 % of control | [1] 97 % of control | dose: 200.0 mg/kg/injection, schedule: Q01DX001 (ip), vehicle: saline with Tween-80 88 % of control | dose: 200.0 mg/kg/injection, schedule: Q01DX009 (ip), vehicle: saline with Tween-80 106 % of control and 115 % of control | dose: 200.0 mg/kg/injection, schedule: Q04DX002 (ip), vehicle: saline with Tween-80 95 % of control and 98 % of control | [2] 95 % of control | dose: 400.0 mg/kg/injection, schedule: Q01DX001 (ip), vehicle: saline with Tween-80 97 % of control | [7] 105 % of control and 90 % of control | [4] 90 % of control and 91 % of control | [3] 103 % of control

O=C(O)c1c(Cl)c(Cl)c(Cl)c(C(=O)O)c1Cl
inactive: [5] 98 % of control | [8] 97 % of control | [9] 93 % of control | [10] 98 % of control | [11] 91 % of control

N#C/C(=C\c1cccc2ccccc12)c1ccccc1
inactive: dose: 25.0 mg/kg/injection, schedule: Q04DX002 (ip), vehicle: Klucel (hydroxypropylcellulose) (HPC) 92 % of control | dose: 50.0 mg/kg/injection, schedule: Q04DX002 (ip), vehicle: Klucel (hydroxypropylcellulose) (HPC) 98 % of control | [8] 95 % of control | dose: 100.0 mg/kg/injection, schedule: Q04DX002 (ip), vehicle: Klucel (hydroxypropylcellulose) (HPC) 95 % of control | [10] 93 % of control | [12] 100 % of control

O=C(Nc1ccc(F)cc1)Nc1cccc(Cl)c1
inactive: dose: 50.0 mg/kg/injection, schedule: Q01DX001 (ip), vehicle: carboxymethylcellulose (CMC) 101 % of control | dose: 100.0 mg/kg/injection, schedule: Q01DX001 (ip), vehicle: carboxymethylcellulose (CMC) 101 % of control | dose: 200.0 mg/kg/injection, schedule: Q01DX001 (ip), vehicle: carboxymethylcellulose (CMC) 93 % of control | dose: 400.0 mg/kg/injection, schedule: Q01DX001 (ip), vehicle: carboxymethylcellulose (CMC) 106 % of control

CC(OC(=O)CBr)C(C)OC(=O)CBr (stereo not drawn)
inactive: dose: 50.0 mg/kg/injection, schedule: Q01DX001 (sc), vehicle: carboxymethylcellulose (CMC) 98 % of control | dose: 100.0 mg/kg/injection, schedule: Q01DX001 (sc), vehicle: carboxymethylcellulose (CMC) 98 % of control | dose: 200.0 mg/kg/injection, schedule: Q01DX001 (sc), vehicle: carboxymethylcellulose (CMC) 95 % of control | dose: 400.0 mg/kg/injection, schedule: Q01DX001 (sc), vehicle: carboxymethylcellulose (CMC) 98 % of control

Cc1ccc(Sc2cccc3c2C(=O)c2c(Sc4ccc(C)cc4)cccc2C3(Br)c2ccccc2)cc1
inactive: [6] 87 % of control | [1] 95 % of control | [2] 97 % of control | [7] 97 % of control | [3] 88 % of control

O=C(CC(CC(=O)c1ccccc1)c1ccco1)c1ccccc1
inactive: [8] 90 % of control | [9] 94 % of control | [10] 94 % of control | [11] 101 % of control | [12] 86 % of control | dose: 400.0 mg/kg/injection, schedule: Q04DX003 (ip), vehicle: Klucel (hydroxypropylcellulose) (HPC) 92 % of control

O=C(O)CCCc1cc(O)c2c(c1O)C(=O)c1ccccc1C2=O
inactive: dose: 100.0 mg/kg/injection, schedule: Q01DX001 (ip), vehicle: saline sonified 98 % of control | dose: 200.0 mg/kg/injection, schedule: Q01DX001 (ip), vehicle: saline sonified 102 % of control | dose: 400.0 mg/kg/injection, schedule: Q01DX001 (ip), vehicle: saline sonified 118 % of control

CN(C)c1nn2c(-c3ccccc3)nnc2o1
inactive: dose: 100.0 mg/kg/injection, schedule: Q01DX009 (ip), vehicle: saline 94 % of control | dose: 200.0 mg/kg/injection, schedule: Q01DX009 (ip), vehicle: saline 102 % of control | dose: 400.0 mg/kg/injection, schedule: Q01DX009 (ip), vehicle: saline 100 % of control

O=C1C2CCCCC1C(N1CCCC1)CC2 (stereo not drawn)
inactive: dose: 100.0 mg/kg/injection, schedule: Q01DX009 (sc), vehicle: olive oil, sesame oil, peanut oil 98 % of control | dose: 100.0 mg/kg/injection, schedule: Q04DX003 (sc), vehicle: olive oil, sesame oil, peanut oil 96 % of control | dose: 200.0 mg/kg/injection, schedule: Q01DX009 (sc), vehicle: olive oil, sesame oil, peanut oil 104 % of control | dose: 200.0 mg/kg/injection, schedule: Q04DX003 (sc), vehicle: olive oil, sesame oil, peanut oil 100 % of control | dose: 400.0 mg/kg/injection, schedule: Q04DX003 (sc), vehicle: olive oil, sesame oil, peanut oil 111 % of control
